The results in this text go back to US20040023972A1, “Use of substituted imidazo[1,2-a]-pyridin-, -pyrimidin-and-pyrazin-3-yl-amine derivatives in the preparation of medicaments for inhibiting NOS” (Gruenenthal GmbH, priority 2000, published 2004).

The target of one test is T1, NO synthase (Rattus norvegicus, UniProt P29476).
T1 construct: the supernatant was then removed by decantation and frozen in portions at −80° C; from tissue; host or cells: rat cerebellum, 20,000 g supernatant of homogenate
Nature of the test: HTS-NOS assay (NOS assay): conversion of radioactive arginine, cation-exchanger filter plate. Type of test: biochemical. As to conditions: 10 μM. The procedure, abridged:
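Percent inhibition was derived by comparing remaining radioactive arginine with compound-free controls. Arginine retained on phosphate cation-exchanger filters was counted after citrulline washout, following a 5-60 min room-temperature (25 °C) reaction of labelled arginine, NADPH-containing medium and rat cerebellar homogenate supernatant.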
Regarding `C#[N+]CCCCCCN(C(C)=O)c1c(-c2ccccc2OC)nc2ccc([N+](=O)[O-])cn12` [Example 238, (6-{acetyl-[2-(2-methoxy-phenyl)-6-nitro-imidazo[1,2-a]pyridin-3-yl]-amino}-hexyl)-methylidyne-ammonium], the “HTS-NOS assay: % inhibition (10 μM)” value was found to be 52%. The same measure, in the same setting: in the case of `C#[N+]CCCCCCN(C(C)=O)c1c(-c2ccccc2OC)nc2cc(C)cc(C)n12` [Example 240, (6-{acetyl-[2-(2-methoxy-phenyl)-5,7-dimethyl-imidazo[1,2-a]pyridin-3-yl]-amino}-hexyl)-methylidyne-ammonium] it was 61%; in that of `[C-]#[N+]CCCCCCN(C(C)=O)c1c(-c2cccnc2)nc2cc(C)ccn12` [Example 241, {6-[acetyl-(7-methyl-2-pyridin-3-yl-imidazo[1,2-a]pyridin-3-yl)-amino]-hexyl}-methylidyne-ammonium], 62%; in that of `CC(=O)OCc1ccc(-c2nc3cc(C)cc(C)n3c2N(C(C)=O)c2c(C)cccc2C)o1` [Example 243, acetic acid 5-{3-[acetyl-(2,6-dimethyl-phenyl)-amino]-5,7-dimethyl-imidazo[1,2-a]pyridin-2-y}-furan-2-yl methyl ester], 62%. On the same count and under the same terms, in the case of `CC(=O)N(c1c(-c2ccccc2C(F)(F)F)nc2ccccn12)C(C)(C)C` [Example 245, N-tert-butyl-N-[2-(2-trifluorO-methyl-phenyl)-imidazo[1,2-a]pyridin-3-yl]-acetamide] it was 56%.

The test is the same for the next values; noted with them: read-out: HTS-NOS assay: % inhibition (10 μM).
As to `CSc1ccc(-c2nc3cnccn3c2N(C(C)=O)C(C)(C)C)s1` [Example 233, N-tert-butyl-N-[2-(5-methylsulfanyl-thiophen-2-yl)-imidazo[1,2-a]pyrazin-3-yl]-acetamide], the inhibition at 10 µM came out at 53%. `CC(=O)N(c1c(-c2ccc(C(=O)O)s2)nc2cccc(C)n12)C1CCCCC1` [Example 234, 5-[3-(acetyl-cyclohexyl-amino)-5-methyl-imidazo[1,2-a]pyridin-2-yl]-thiophene-2-carboxylic acid]: the inhibition at 10 µM turned out to be 58%.

Consider `CSc1ccc(-c2nc3cnccn3c2N(C(C)=O)C(C)(C)CC(C)(C)C)s1` [Example 235, N-[2-(5-methylsulfanyl-thiophen-2-yl)-imidazo[1,2-a]pyrazin-3-yl]-N-(1,1,3,3-tetramethyl-butyl)-acetamide], for which the inhibition at 10 µM was found to be 58%. Turning to `CC(=O)N(c1c(C)cccc1C)c1c(-c2cccc(Cl)c2Cl)nc2cccc(C)n12` [Example 236, N-[2-(2,3-dichloro-phenyl)-5-methyl-imidazo[1,2-a]pyridin-3-yl]-N-(2,6-dimethyl-phenyl)-acetamide], the inhibition at 10 µM is 58%.

As for `CCCCN(C(C)=O)c1c(-c2ccccc2OC)nc2ccccn12` [Example 237, N-butyl-N-[2-(2-methoxy-phenyl)-imidazo[1,2-a]pyridin-3-yl]-acetamide], the inhibition at 10 µM amounted to 55%.

Consider `CC(=O)N(c1c(C)cccc1C)c1c(-c2cc3ccccc3o2)nc2cc(C)ccn12` [Example 239, N-(2-benzofuran-2-yl-7-methyl-imidazo[1,2-a]pyridin-3-yl)-N-(2,6-dimethylphenyl)-acetamide], for which the inhibition at 10 µM was 52%. `CC(=O)N(c1c(-c2ccc(C)cc2)nc2ccc(C)cn12)C(C)(C)CC(C)(C)C` [Example 242, N-(6-methyl-2-p-tolyl-imidazo[1,2-a]pyridin-3-yl)-N-(1,1,3,3-tetramethyl-butyl)-acetamide]: the inhibition at 10 µM was found to be 58%. Take `COC(=O)CN(C(C)=O)c1c(-c2cccc(O)c2)nc2ccc(C)cn12` [Example 244, {acetyl-[2-(3-hydroxy-phenyl)-6-methyl-imidazo[1,2-a]pyridin-3-yl]-amino}-acetic acid methyl ester]: the inhibition at 10 µM turned out to be 50%. In the case of `CCCCN(C(C)=O)c1c(-c2ccc(F)cc2Cl)nc2ccccn12` [Example 246, N-butyl-N-[2-(2-chloro-4-fluoro-phenyl)-imidazo[1,2-a]pyridin-3-yl]-acetamide], the inhibition at 10 µM was 55%.

What is called inhibition is how much of the control response was suppressed.
